From patent US6825227B2, “Method for fighting against arthropods destructive of crops and compositions therefor” (priority 2000, dated 2004)

Assays:
Assay type in all cases: in vivo
[1] = tested on: Nilaparvata lugens; test: Process Example H: variation in number of Nilaparvata lugens after treatment; conditions: fipronil 25 g/ha
Excerpt: (§1) This process example gives an illustration of a process according to the invention which is useful for insecticidal treatment against Nilaparvata lugens.
(§2) The operating and measuring conditions are reproduced and adapted from Process Example B.
The active materials used, their application rates and the results obtained are collated in Table 8.

[2] = tested on: Nephotettix apicalis; test: Process Example G: variation in number of Nephotettix apicalis after treatment
Excerpt: This process example gives an illustration of a process according to the invention which is useful for insecticidal treatment against Nephotettix apicalis. The operating and measuring conditions are reproduced and adapted from Process Example B.
The active materials used, their application rates and the results obtained are collated in Table 7.

[3] = tested on: Tryporyza incertulas; test: Process Example A: treatment of rice plots against yellow rice stem borer, count of dead plant cores; conditions: applied 7 days after planting out
Method: The treatment process carried out was a treatment process against yellow rice stem borer or Tryporyza incertulas during the infestation of a rice crop. For the comparison of the process according to the invention with known insecticidal treatment processes, four plots were prepared in a similar manner.
The first is left without treatment, the second is treated with fipronil as active material, the third with deltamethrin and the fourth with fipronil and deltamethrin in accordance with the process according to the invention.
After sowing and then growing, the rice seedlings are transplanted at the three- to four-leaf stage.
The various active materials were then applied 7 days after planting out.
The formulation used in this process according to the invention is identical to that of Composition Example A.
The application rates and the results obtained are collated in Table 1.
(§3) The measurement was carried out by counting the number of rice plant cores that were dead due to attack by the damaging insects treated, i.e. Tryporyza incertulas; thus, the smallest number is obtained after carrying out the process according to the invention, while the untreated plots or plots treated in a known manner give substantially larger numbers.

[4] = tested on: Nephotettix apicalis; test: Process Example B: insecticidal treatment of a rice crop against leafhoppers; conditions: applied 25 days after planting out, 14 days after application
Method: This process example gives an illustration of a process according to the invention which is useful for insecticidal treatment against leafhoppers and in particular against Nephotettix apicalis.
This process according to the invention was carried out for the treatment of a rice crop.
(§4) The operating conditions were reproduced and adapted from those of Process Example A.
The active materials used were fipronil and deltamethrin in a formulation in the form of granules according to Composition Example A.
(§5) The active material(s) was(were) applied to the plots 25 days after planting out.
(§6) The rates of active materials applied and the results obtained 14 days after application are collated in Table 2.

[5] = tested on: Nilaparvata lugens; test: Process Example C: insecticidal treatment against Nilaparvata lugens
Excerpt: as §4, §5, §6
This process example gives an illustration of a process according to the invention which is useful for insecticidal treatment against Nilaparvata lugens. The operating and measuring conditions are reproduced and adapted from Process Example B.
The application rates and the results are collated in Table 3.

[6] = tested on: Nilaparvata lugens; test: Process Example I: variation in number of Nilaparvata lugens after treatment; conditions: fipronil 25 g/ha
Excerpt: as §1, §2
The active materials used, their application rates and the results obtained are collated in Table 9.

[7] = tested on: Scotinophara lurida; test: Process Example K: treatment of a rice crop against Scotinophara lurida; conditions: fipronil 25 g/ha
Excerpt: The treatment process used was a process of treatment against Scotinophara lurida during the infestation of a rice crop.
as §2
The active materials used, their application rates and the results obtained are collated in Table 11.

[8] = tested on: Nilaparvata lugens; test: Process Example E: variation in number of Nilaparvata lugens after treatment
Excerpt: as §1, §2
The active materials used, their application rates and the results obtained are collated in Table 5.

[9] = tested on: Tryporyza incertulas; test: Process Example J: treatment of a rice crop against yellow rice stem borer, variation in dead plant cores; conditions: fipronil 25 g/ha
Method: The treatment process used was a process of treatment against yellow rice stem borer or Tryporyza incertulas during the infestation of a rice crop.
as §2
The active materials used, their application rates and the results obtained are collated in Table 10.
as §3, with “greatest degree of reduction” for “smallest number”, “whereas” for “while”, “more mediocre degrees.” for “larger numbers.”

[10] = tested on: Nilaparvata lugens; test: Process Example F: variation in number of Nilaparvata lugens after treatment
Excerpt: as §1, §2
The active materials used, their application rates and the results obtained are collated in Table 6.

[11] = tested on: rice crop; test: Process Example D: yield of a rice crop with control of the insects which ravage it; conditions: versus plot without treatment
Method: This process example according to the invention gives an illustration of the improvement in the yield of a rice crop obtained concomitantly with the control of the insects which ravage this rice crop.
In this treatment Process Example according to the invention, the yield of the crop was evaluated, along with the improvement in this yield obtained by carrying out the said process according to the invention simultaneously using fipronil as compound (A) and cypermethrin as compound (B).
as §2
The application rates and the results are collated in Table 4.

With `N#Cc1nn(-c2c(Cl)cc(C(F)(F)F)cc2Cl)c(N)c1[S+]([O-])C(F)(F)F` (stereo not shown) [fipronil, 5-amino-3-cyano-1-(2,6-dichloro-4-trifluoromethylphenyl)-4-trifluoromethylsulphinylpyrazole] the “Degree of variation in the number of damaging insects 1 day after application” value ([1]; 1 day) was −15%, the “Degree of variation in the number of damaging insects 3 days after application” value ([1]; 3 days) was −8% and the “Degree of variation in the number of damaging insects 7 days after application” value ([1]; 7 days) was −16%. The “Degree of variation in the number of damaging insects 14 days after application” value ([1]; 14 days) was “+40%”, the “Degree of variation in the number of damaging insects 1 day after application” value ([2]; fipronil 25 g/ha) was “+50%” and the “Degree of variation in the number of damaging insects 3 days after application” value ([2]; fipronil 25 g/ha) was “+83%”. The “Degree of variation in the number of damaging insects 7 days after application” value ([2]; fipronil 25 g/ha) was “+183%”, the “Proportion of dead plant cores found” value ([3]; fipronil 10 g/ha) was 56% and the Insecticidal efficacy ([4]; fipronil 25 g/ha) was 16%. For the same molecule, the Insecticidal efficacy ([5]; fipronil 10 g/ha) was 78%, the “Degree of variation in the number of damaging insects 7 days after application” value [6] was “+19%” and the “Degree of variation in the number of damaging insects 1 day after treatment” value ([7]; 1 day) was −43%. For the same molecule, the “Degree of variation in the number of damaging insects 3 days after treatment” value ([7]; 3 days) was −67%, the “Degree of variation in the number of damaging insects 14 days after treatment” value ([7]; 14 days) was −45% and the “Degree of variation in the number of damaging insects 3 days after application” value ([8]; fipronil 25 g/ha) was “+33%”. For the same molecule, the “Degree of variation in the number of damaging insects 7 days after application” value ([8]; fipronil 25 g/ha) was “+11%”, the “Degree of variation in the number of dead plant cores” value [9] was −35% and the “Degree of variation in the number of damaging insects 3 days after application” value ([10]; fipronil 25 g/ha) was “+33%”. The “Degree of variation in the number of damaging insects 7 days after application” value ([10]; fipronil 25 g/ha) was “+11%” and the “Improvement in the yield of the plot (%)” value ([11]; fipronil 10 g/ha) was 188%.

For `CC1(C)C(C=C(Cl)Cl)C1C(=O)OC(C#N)c1cccc(Oc2ccccc2)c1` [cypermethrin, (R,S)-α-cyano-3-phenoxybenzyl (1RS,3RS;1RS,3SR)-3-(2,2-dichlorovinyl)-2,2-dimethylcyclopropanecarboxylate], the Insecticidal efficacy ([5]; cypermethrin 12.5 g/ha) was 21%, the “Degree of variation in the number of damaging insects 3 days after application” value ([10]; cypermethrin 12.5 g/ha) was −27% and the “Degree of variation in the number of damaging insects 7 days after application” value ([10]; cypermethrin 12.5 g/ha) was “+13%”. For the same molecule, the “Improvement in the yield of the plot (%)” value ([11]; cypermethrin 12.5 g/ha) was 78%.

For `CC1(C)[C@H](C(=O)O[C@H](C#N)c2cccc(Oc3ccccc3)c2)[C@@H]1C=C(Br)Br` [deltamethrin, (S)-α-cyano-3-phenoxybenzyl (1R,3R)-3-(2,2-dibromovinyl)-2,2-dimethylcyclopropanecarboxylate], the “Degree of variation in the number of damaging insects 1 day after application” value ([2]; deltamethrin 6 g/ha) was −13%, the “Degree of variation in the number of damaging insects 3 days after application” value ([2]; deltamethrin 6 g/ha) was “+25%” and the “Degree of variation in the number of damaging insects 7 days after application” value ([2]; deltamethrin 6 g/ha) was “+75%”. For the same molecule, the “Proportion of dead plant cores found” value ([3]; deltamethrin 6 g/ha) was 66%, the Insecticidal efficacy ([4]; deltamethrin 6 g/ha) was 6% and the “Degree of variation in the number of damaging insects 3 days after application” value ([8]; deltamethrin 6 g/ha) was “+27%”. For the same molecule, the “Degree of variation in the number of damaging insects 7 days after application” value ([8]; deltamethrin 6 g/ha) was 0%.
